US8143265B2, “Method of treating atherosclerosis” (Meharry Medical College, priority 2007, dated 2012)

Legend:
eIF-2α phosphorylation = assay: E−/B48 lipoprotein-induced eIF2α phosphorylation in MPMs; format: cell-based, mouse; conditions: addition to culture medium or transfection, data not shown
Text: 3. ApoE-deficient lipoproteins induce eIF-2α phosphorylation. […] We also observed that addition of 2-AP to culture medium or transfection of a nonphosphorylatable eIF2α mutant to MPMs attenuated E^−/B48 lipoprotein-induced eIF2α phosphorylation (not shown).

mRNA translation = assay: E−/B48 lipoprotein-induced suppression of mRNA translation; format: cell-based; conditions: data not shown
Text: 6. Inhibition of eIF-2α phosphorylation attenuates E^−/B48 lipoprotein-induced suppression on mRNA translation. We observed that E^−/B48 lipoproteins reduced lysosomal hydrolases, due mainly to suppressing the translation of mRNAs encoding these proteins, and that 2-AP attenuated the suppressive effect of E^−/B48 lipoproteins on mRNA translation (data not shown).

[1] = tested on: mouse peritoneal macrophages; assay: E−/B48 lipoprotein degradation and lipoprotein and cholesterol ester accumulation in MPMs; format: cell-based; conditions: addition to culture medium or transfection, data not shown
Text: 4. Inhibition of eIF-2α phosphorylation increases macrophage lipoprotein degradation, and suppresses cholesterol ester and lipoprotein accumulation in macrophages. We observed that E^−/B48 lipoproteins induced a time-related accumulation of cholesterol ester and lipoproteins in MPMs, which is associated with a reduced degradation rate of E^−/B48 lipoproteins. The addition of 2-AP to culture medium or transfection of a nonphosphorylatable eIF-2α mutant to MPMs enhances E^−/B48 lipoprotein degradation, and reduces E^−/B48 lipoprotein and cholesterol ester accumulation (data not shown).

[2] = tested on: lysosomal hydrolases, including cathepsin B and lysosomal acid lipase; assay: E−/B48 lipoprotein-induced suppression of lysosomal hydrolases in MPMs; format: cell-based, mouse; conditions: data not shown
Text: 5. Inhibition of eIF-2α phosphorylation attenuates E^−/B48 lipoprotein-induced suppressive effect on lysosomal hydrolases. […] We also observed that 2-AP and the nonphosphorylatable eIF-2α mutant attenuated the suppressive effect of E^−/B48 lipoproteins on lysosomal hydrolases (data not shown). It is highly likely that E^−/B48 lipoprotein-induced eIF-2α phosphorylation down-regulates macrophage lysosomal hydrolases, which in turn reduces the degradation of the lipid and protein components of E^−/B48 lipoproteins, leading to lipoprotein accumulation in the lysosomes and triggering foam cell formation.

ApoE−/− mice = assay: Atherosclerosis development in ApoE−/− mice with oral feeding of 2-AP; format: in vivo, mouse
Protocol: FIG. 1. ApoE^−/− mice at 5 weeks of age were treated with 200 mg/kg BW of 2-AP or equal volume of water as control via gavage feeding. This procedure was repeated once every other day for […]. A. Heart-aorta samples were collected from mice at 6 months of age (n=12 for each group of mice). Sequential 8-μm thick sections were cut from the mouse aortic root. The area (μm^2) of atherosclerotic lesions in the section was measured. B. Aortas from the aortic root to the iliac bifurcation were collected, and the area of atherosclerotic lesions and the total area of the aortic surface were measured, data are expressed as the percent of aortic surface area covered by atherosclerotic lesions. Data are expressed as the mean±SEM. *P<0.05 as compared to untreated control mice. 1. Inhibition of eIF-2α phosphorylation by 2-AP delays the development of atherosclerosis in ApoE^−/− mice: We find that oral feeding of 2-AP reduces the mean size of atherosclerotic lesions in the aorta root and the aorta tree by about 45% and 37%, respectively. […] These findings provide evidence that development of atherosclerosis in ApoE^−/− mice is associated with an increased eIF-2α phosphorylation and that inhibition of eIF-2α phosphorylation via in vivo treatment with 2-AP delays the development of atherosclerosis.

[3] = tested on: mouse peritoneal macrophages; assay: E−/B48 lipoprotein-induced foam cell formation, confocal microscopy of DiI and LysoTracker staining; format: cell-based; conditions: MPMs, 20 μg/ml DiI-labeled E−/B48 lipoproteins plus 2 mM 2-AP, 48 hrs
Protocol: FIG. 2. Mouse peritoneal macrophages were treated with 20 μg/ml DiI-labeled E^−/B48 lipoproteins, 20 μg/ml E^−/B48 lipoproteins plus 2 mM 2-AP, or culture medium alone (control) for 48 hrs. The cells were then stained with LysoTracker, which is used to localize lysosomes. Confocal microscopy images were captured, and the merged images are an overlay of the differential interference contrast (DIC) images and the fluorescence images of intracellular DiI and LysoTracker staining. Co-localization of DiI and LysoTracker staining indicates lipoprotein accumulation in the lysosomes. 2. Inhibition of eIF-2α phosphorylation by 2-AP represses E^−/B48 lipoprotein-induced foam cell formation in vitro. We previously reported that incubation of mouse peritonea macrophages (MPMs) with E^−/B48 lipoproteins induces lipid droplet accumulation in the cytoplasm. In some cells, E^−/B48 lipoproteins caused the cytoplasm to be almost entirely accumulated lipids, giving these cells a foam cell like appearance^12. In the present study, we used a confocal microscopy to localize the accumulated lipids in MPMs and to assess the effect of 2-AP on this localization.

[4] = ApoE−/− mice, 200 mg/kg BW 2-AP by gavage once every other day for 24 weeks, vs untreated control
[5] = ApoE−/− mice, 200 mg/kg BW once every other day for 24 weeks, 6-hr fasting

Nc1ncc2[nH]cnc2n1 [2-AP, 7H-purin-2-amine]
E−/B48 lipoprotein-induced eIF2α phosphorylation (eIF-2α phosphorylation): attenuated | suppressive effect of E−/B48 lipoproteins on mRNA translation (mRNA translation): attenuated | E−/B48 lipoprotein accumulation [1]: reduces | E−/B48 lipoprotein degradation [1]: enhances | cholesterol ester accumulation [1]: reduces | suppressive effect of E−/B48 lipoproteins on lysosomal hydrolases [2]: attenuated | body weight (ApoE−/− mice; 2-AP treatment of ApoE−/− mice): did not alter | food intake (ApoE−/− mice; 2-AP treatment of ApoE−/− mice): did not alter | advanced lesions (e.g., fibrous caps and acellular areas) (ApoE−/− mice; 2-AP-treated ApoE−/− mice): reduced markedly | reduction of mean size of atherosclerotic lesions in the aorta root (ApoE−/− mice; [4]): about 45% | reduction of mean size of atherosclerotic lesions in the aorta tree (ApoE−/− mice; [4]): ~37% | plasma glucose levels (ApoE−/− mice; [5]): did not alter | plasma insulin levels (ApoE−/− mice; [5]): did not alter | plasma lipid levels (ApoE−/− mice; [5]): did not alter | phosphorylated eIF-2α immunostaining in the atherosclerotic lesions (ApoE−/− mice; immunohistology, 2-AP-treated vs untreated ApoE−/− mice): significantly reduced | level of staining with DiI (intralysosomal lipid accumulation) [3]: markedly reduced
